Laboratory results: publication PMC8617627, “Novel DYRK1A Inhibitor Rescues Learning and Memory Deficits in a Mouse Model of Down Syndrome” (Pharmaceuticals, 2021)
Where two headings read alike, the source gives them in different places.

Assays:
Test in all cases: Kinase profile (33P ATP filter binding)
Type in all cases: biochemical
Details in all cases: read-out: Remaining protein kinase activity
PAK6 = PAK6 (Homo sapiens, UniProt Q9NQU5)
PIM2 = PIM2 (Homo sapiens, UniProt Q9P1W9)
Aurora B = Aurora B (Homo sapiens, UniProt Q96GD4)
MPSK1 = MPSK1 (Homo sapiens, UniProt O75716)
p38g MAPK = target: T1, p38g MAPK (Homo sapiens, UniProt P53778)
T1 sequence (P53778 1-367): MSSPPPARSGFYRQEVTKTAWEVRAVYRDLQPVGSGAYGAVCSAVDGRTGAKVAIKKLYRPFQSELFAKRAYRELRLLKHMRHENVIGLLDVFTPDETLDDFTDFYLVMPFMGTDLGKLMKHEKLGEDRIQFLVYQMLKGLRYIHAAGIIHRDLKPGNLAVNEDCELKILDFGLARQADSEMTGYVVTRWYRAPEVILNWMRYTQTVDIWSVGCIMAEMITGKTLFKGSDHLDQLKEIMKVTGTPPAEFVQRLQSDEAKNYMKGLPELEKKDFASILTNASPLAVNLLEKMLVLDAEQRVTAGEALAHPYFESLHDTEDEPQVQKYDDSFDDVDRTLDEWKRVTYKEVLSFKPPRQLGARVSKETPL

PKA = PKA (Homo sapiens, UniProt P17612)
EIF2AK3 = target: T2, EIF2AK3 (Homo sapiens, UniProt Q9NZJ5)
T2 sequence (Q9NZJ5 30-1116): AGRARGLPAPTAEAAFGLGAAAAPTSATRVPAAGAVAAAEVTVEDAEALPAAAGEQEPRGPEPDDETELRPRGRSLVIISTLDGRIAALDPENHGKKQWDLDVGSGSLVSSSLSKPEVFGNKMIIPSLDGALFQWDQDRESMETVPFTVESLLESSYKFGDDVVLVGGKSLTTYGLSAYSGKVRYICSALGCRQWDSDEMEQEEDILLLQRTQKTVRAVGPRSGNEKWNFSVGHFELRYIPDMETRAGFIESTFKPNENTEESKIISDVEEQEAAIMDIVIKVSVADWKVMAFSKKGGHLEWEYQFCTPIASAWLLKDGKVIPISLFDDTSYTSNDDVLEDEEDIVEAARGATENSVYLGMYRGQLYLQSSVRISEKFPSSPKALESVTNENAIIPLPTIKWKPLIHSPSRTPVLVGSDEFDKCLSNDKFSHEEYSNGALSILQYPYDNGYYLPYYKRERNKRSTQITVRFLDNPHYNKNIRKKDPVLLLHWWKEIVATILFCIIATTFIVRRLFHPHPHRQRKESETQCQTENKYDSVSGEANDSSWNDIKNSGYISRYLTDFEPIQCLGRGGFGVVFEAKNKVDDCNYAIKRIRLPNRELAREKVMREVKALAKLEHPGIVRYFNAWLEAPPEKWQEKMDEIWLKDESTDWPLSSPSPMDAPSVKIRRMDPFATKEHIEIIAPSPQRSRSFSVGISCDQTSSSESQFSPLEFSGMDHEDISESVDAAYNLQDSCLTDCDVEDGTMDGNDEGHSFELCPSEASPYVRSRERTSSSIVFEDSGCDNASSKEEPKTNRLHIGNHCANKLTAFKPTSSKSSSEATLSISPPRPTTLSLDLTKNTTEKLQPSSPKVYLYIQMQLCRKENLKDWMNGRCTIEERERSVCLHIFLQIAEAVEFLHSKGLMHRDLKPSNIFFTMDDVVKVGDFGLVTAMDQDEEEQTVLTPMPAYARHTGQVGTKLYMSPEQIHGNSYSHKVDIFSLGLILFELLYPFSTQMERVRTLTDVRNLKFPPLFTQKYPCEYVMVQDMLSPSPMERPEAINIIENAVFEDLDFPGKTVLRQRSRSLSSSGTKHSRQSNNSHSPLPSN

SmMLCK = SmMLCK (Homo sapiens, UniProt Q15746)
Sequence of SmMLCK (Q15746 923-1914): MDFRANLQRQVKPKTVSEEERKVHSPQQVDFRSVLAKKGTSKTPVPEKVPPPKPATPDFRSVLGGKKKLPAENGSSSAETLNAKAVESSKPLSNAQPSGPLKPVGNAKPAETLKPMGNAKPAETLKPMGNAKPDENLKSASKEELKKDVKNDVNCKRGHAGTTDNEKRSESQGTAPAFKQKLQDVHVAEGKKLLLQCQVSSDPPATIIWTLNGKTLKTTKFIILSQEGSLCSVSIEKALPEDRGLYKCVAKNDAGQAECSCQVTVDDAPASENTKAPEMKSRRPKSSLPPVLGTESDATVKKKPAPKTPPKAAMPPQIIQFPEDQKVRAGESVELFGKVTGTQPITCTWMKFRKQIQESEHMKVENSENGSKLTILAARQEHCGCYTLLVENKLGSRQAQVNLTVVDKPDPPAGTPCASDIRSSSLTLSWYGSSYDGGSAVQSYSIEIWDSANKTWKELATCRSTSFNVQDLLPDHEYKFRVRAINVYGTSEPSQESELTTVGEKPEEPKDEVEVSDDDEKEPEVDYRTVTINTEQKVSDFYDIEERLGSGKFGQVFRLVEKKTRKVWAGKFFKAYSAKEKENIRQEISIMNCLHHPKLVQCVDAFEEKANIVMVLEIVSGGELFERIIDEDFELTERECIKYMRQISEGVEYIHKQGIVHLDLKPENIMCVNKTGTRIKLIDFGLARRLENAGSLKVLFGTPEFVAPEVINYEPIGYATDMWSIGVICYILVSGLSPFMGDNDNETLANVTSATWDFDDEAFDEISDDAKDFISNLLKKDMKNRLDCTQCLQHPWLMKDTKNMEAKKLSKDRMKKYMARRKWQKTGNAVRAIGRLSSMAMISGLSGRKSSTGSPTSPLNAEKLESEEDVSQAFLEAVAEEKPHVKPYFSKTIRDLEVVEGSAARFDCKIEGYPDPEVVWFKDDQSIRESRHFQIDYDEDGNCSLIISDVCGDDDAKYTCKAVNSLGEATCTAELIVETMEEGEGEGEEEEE

Sequence of MPSK1 (O75716 whole entry): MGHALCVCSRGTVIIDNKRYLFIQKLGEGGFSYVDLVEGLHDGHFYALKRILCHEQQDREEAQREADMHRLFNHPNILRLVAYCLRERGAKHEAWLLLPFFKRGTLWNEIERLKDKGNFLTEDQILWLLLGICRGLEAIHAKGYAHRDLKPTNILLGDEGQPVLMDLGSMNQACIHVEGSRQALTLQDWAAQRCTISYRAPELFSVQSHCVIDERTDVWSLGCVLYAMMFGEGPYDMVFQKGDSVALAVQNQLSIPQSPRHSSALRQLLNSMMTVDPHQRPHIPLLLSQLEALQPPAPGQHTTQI
Sequence of PIM2 (Q9P1W9 whole entry): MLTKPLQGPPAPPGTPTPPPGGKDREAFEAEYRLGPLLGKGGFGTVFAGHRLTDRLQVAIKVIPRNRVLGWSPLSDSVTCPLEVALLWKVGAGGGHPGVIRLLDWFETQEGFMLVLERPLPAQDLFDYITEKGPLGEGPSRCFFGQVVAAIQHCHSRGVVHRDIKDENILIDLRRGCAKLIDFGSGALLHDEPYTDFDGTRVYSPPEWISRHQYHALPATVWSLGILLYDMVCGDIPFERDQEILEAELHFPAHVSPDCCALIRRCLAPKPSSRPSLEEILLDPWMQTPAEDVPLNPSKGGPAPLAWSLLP
Sequence of Aurora B (Q96GD4 whole entry): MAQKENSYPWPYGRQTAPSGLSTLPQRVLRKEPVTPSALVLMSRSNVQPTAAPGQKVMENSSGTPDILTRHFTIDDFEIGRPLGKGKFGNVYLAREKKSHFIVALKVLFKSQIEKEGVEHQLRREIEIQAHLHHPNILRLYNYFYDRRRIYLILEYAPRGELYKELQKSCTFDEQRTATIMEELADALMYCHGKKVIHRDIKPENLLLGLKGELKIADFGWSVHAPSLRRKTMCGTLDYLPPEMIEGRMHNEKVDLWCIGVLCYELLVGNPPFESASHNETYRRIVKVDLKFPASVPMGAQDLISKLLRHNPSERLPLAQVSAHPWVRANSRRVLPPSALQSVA
Sequence of PAK6 (Q9NQU5 whole entry): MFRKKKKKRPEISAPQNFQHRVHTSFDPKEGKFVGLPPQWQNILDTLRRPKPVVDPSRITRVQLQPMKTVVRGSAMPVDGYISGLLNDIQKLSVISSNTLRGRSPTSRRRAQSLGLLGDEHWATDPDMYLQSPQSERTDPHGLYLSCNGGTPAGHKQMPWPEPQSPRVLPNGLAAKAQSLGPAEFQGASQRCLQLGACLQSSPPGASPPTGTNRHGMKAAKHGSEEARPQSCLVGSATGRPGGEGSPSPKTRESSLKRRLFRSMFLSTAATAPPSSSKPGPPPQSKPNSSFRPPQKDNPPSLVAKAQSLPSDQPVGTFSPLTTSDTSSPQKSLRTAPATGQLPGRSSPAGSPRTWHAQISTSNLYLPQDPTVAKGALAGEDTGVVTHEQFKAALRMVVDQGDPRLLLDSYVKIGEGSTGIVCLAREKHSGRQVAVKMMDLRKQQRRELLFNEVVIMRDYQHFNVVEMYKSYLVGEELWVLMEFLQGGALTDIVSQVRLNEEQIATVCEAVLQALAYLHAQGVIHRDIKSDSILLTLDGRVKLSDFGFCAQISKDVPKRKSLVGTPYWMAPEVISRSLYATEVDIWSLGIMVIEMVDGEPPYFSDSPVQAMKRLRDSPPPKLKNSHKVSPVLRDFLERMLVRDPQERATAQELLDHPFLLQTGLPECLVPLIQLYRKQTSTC

Which results are given for `COc1ccc2sc(-c3cncc(NC(C)=O)c3)nc2c1` [PST-001, N-(5-(5-Methoxybenzo[d]thiazol-2-yl)pyridin-3-yl)acetamide]?
remaining activity at 1 µM (PAK6): 112%; remaining activity at 100 µM (PAK6): 113%; remaining activity at 1 µM (PIM2): 120%; remaining activity at 100 µM (PIM2): 102%; remaining activity at 1 µM (Aurora B): 106%; remaining activity at 100 µM (Aurora B): 24%; remaining activity at 1 µM (MPSK1): 121%; remaining activity at 100 µM (MPSK1): 113%; remaining activity at 1 µM (p38g MAPK): 125%; remaining activity at 100 µM (p38g MAPK): 105%; remaining activity at 1 µM (PKA): 88%; remaining activity at 100 µM (PKA): 88%; remaining activity at 1 µM (EIF2AK3): 123%; remaining activity at 100 µM (EIF2AK3): 118%; remaining activity at 1 µM (SmMLCK): 118%; remaining activity at 100 µM (SmMLCK): 99%

With `COc1ccc2sc(-c3cncc(N)c3)nc2c1` [compound 1, 5-(5-Methoxybenzo[d]thiazol-2-yl)pyridin-3-amine] as the molecule, how does the remaining activity at 1 µM (PAK6; PAK6, 1 μM) read?
The remaining activity at 1 µM was 108%.

And the remaining activity at 100 µM (PAK6; PAK6, 100 μM)?
The remaining activity at 100 µM was 80%.

What about the remaining activity at 1 µM (PIM2; PIM2, 1 μM) of the same molecule?
The remaining activity at 1 µM was 110%.

And the remaining activity at 100 µM (PIM2; PIM2, 100 μM)?
Its remaining activity at 100 µM is 36%.

What about the remaining activity at 1 µM (Aurora B; Aurora B, 1 μM) of the same molecule?
The remaining activity at 1 µM was 107%.

What about the remaining activity at 100 µM (Aurora B; Aurora B, 100 μM) of the same molecule?
Its remaining activity at 100 µM is 21%.

And the remaining activity at 1 µM (MPSK1; MPSK1, 1 μM)?
The remaining activity at 1 µM was 110%.

What about the remaining activity at 100 µM (MPSK1; MPSK1, 100 μM) of the same molecule?
The remaining activity at 100 µM was 106%.

What about the remaining activity at 1 µM (p38g MAPK; p38g MAPK, 1 μM) of the same molecule?
The remaining activity at 1 µM was 110%.

And the remaining activity at 100 µM (p38g MAPK; p38g MAPK, 100 μM)?
Its remaining activity at 100 µM is 37%.

And the remaining activity at 1 µM (PKA; PKA, 1 μM)?
Its remaining activity at 1 µM is 98%.

What about the remaining activity at 100 µM (PKA; PKA, 100 μM) of the same molecule?
Its remaining activity at 100 µM is 74%.

And the remaining activity at 1 µM (EIF2AK3; EIF2AK3, 1 μM)?
The remaining activity at 1 µM was 122%.

And the remaining activity at 100 µM (EIF2AK3; EIF2AK3, 100 μM)?
The remaining activity at 100 µM was 84%.

And the remaining activity at 1 µM (SmMLCK)?
The remaining activity at 1 µM was 98%.

And the remaining activity at 100 µM (SmMLCK)?
The remaining activity at 100 µM was 41%.
